Measured values published in patent publication US11530210B2, “Substituted heteroaromatic pyrazolo-pyridines and their use as GLUN2B receptor modulators” (JANSSEN PHARMACEUTICA NV, priority 2019, dated 2022).

Target: T1, human GluN1/GluN2B NMDA receptors (Homo sapiens, UniProt Q13224)
T1 construct: expressed in transfected cells
Experiment: Calcium flux (FLIPR) assay on cloned human NR1/GluN2B ion channels expressed in mammalian cells (standard and HTS variants)
Assay type: cell-based
Details: cells expressing human GluN1/GluN2B, glutamate and glycine co-agonists
Experimental: Effects of Test Articles on Cloned Human NR1/GuN2B Ion Channels Expressed in Mammalian Cells
NMDA receptors are ion channels that are highly permeable to Ca^2+ ions, rendering it possible to monitor NMDA receptor function using cell-based calcium flux assay. In this assay, co-agonists glutamate and glycine are added to cells heterologously expressing human GluN1/GluN2B NMDA receptors to initiate cellular Ca^2+ influx. The time course of the changes in intracellular calcium is measured using a fluorescent dye and a FLIPR (Fluorometric Imaging Plate Reader) device.
Twenty-four hours before measurements, the expression of the NMDA receptors in the stable cell line is induced with Tet-On inducible system in the presence of a non-selective NMDA receptor blocker. On the day of the experiment, cell culture media is carefully washed, and the cells are loaded with Calcium 5 Dye Kit (Molecular Devices) in dye loading buffer containing 137 mM NaCl, 4 mM KCl, 2 mM CaCl2, 0.5 mM MgCl2 (standard assay) or 1.5 mM MgCl2 (HTS assay), 10 mM HEPES and 5 mM D-glucose; pH 7.4. After 1 h incubation at the room temperature, the dye is washed away with the assay buffer (137 mM NaCl (standard assay) or 150 mM (HTS assay), 4 mM KCl (standard assay) or 3 mM (HTS assay), 2 mM CaCl2), 0.01 mM EDTA, 10 mM HEPES and 5 mM D-glucose; pH 7.4) In the FLIPR TETRA reader, various concentrations of the test compounds are added to the cells for 5 min while fluorescence is monitored to detect potential agonist activity. Next, co-agonists, glutamate and glycine are added for another 5 minutes. The concentration of glutamate corresponding to ˜EC40 (standard assay) or EC40 (HTS assay) is used to maximize the assay's signal window and ability to detect NMDA receptor antagonists and negative allosteric modulators. A saturating concentration (10 μM) of glycine is also present in the assay. A non-selective NMDA receptor antagonist, (+)MK-801 is used as a positive control for antagonist activity. The fluorescent signal in the presence of test compounds is quantified and normalized to the signal defined by the appropriate control wells.

T1 sequence (Q13224 27-1484, other chains not shown): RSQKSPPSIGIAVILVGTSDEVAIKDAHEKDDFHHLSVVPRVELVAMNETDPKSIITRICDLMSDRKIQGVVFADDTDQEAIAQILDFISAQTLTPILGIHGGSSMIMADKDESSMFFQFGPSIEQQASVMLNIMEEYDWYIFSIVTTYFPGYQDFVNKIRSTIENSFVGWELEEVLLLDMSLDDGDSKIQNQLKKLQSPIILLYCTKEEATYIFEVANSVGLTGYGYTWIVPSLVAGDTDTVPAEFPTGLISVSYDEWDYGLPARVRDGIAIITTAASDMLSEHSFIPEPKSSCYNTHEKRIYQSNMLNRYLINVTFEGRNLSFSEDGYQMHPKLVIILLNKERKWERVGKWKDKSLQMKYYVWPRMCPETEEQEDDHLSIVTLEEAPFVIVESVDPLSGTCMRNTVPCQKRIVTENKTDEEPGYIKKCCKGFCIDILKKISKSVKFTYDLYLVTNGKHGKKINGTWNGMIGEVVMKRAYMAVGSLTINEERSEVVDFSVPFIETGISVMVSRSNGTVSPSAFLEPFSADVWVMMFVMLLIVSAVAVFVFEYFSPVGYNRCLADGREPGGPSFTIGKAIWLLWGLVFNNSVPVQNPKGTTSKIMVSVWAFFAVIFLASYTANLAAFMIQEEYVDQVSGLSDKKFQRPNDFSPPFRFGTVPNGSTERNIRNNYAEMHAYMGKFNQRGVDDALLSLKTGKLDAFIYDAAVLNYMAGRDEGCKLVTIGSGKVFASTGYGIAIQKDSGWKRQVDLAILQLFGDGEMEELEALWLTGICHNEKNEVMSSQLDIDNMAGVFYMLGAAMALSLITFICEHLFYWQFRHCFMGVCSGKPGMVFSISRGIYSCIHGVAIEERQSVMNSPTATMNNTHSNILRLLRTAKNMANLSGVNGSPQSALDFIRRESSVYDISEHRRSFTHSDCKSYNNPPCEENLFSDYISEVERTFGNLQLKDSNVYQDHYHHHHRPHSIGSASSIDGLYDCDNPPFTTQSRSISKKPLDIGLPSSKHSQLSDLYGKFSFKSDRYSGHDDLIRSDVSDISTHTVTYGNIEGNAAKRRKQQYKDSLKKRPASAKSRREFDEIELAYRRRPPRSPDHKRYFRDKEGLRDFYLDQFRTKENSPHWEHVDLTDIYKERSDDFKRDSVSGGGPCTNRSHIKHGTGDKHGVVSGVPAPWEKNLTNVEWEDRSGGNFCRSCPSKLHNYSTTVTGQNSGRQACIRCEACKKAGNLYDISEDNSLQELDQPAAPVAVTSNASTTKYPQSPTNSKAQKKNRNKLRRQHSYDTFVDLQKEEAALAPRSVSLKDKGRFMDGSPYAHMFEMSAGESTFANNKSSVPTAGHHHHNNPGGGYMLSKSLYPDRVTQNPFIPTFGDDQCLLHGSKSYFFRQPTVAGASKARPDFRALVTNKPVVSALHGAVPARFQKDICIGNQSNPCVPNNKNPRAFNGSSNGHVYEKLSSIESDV

Structure (SMILES) | IC50 [nM]
Cc1cnc(Cn2ncc3ncc(-c4ccc(F)c(C)c4F)cc32)s1 [Example 70, 2-[[6-(2,4-Difluoro-3-methyl-phenyl)pyrazolo[4,3-b]pyridin-1-yl]methyl]-5-methyl-thiazole] | 350
Cn1cnc(Cn2ncc3ncc(-c4cccc(C(F)(F)F)c4)cc32)n1 [Example 71, 1-[(1-Methyl-1,2,4-triazol-3-yl)methyl]-6-[3-(trifluoromethyl)phenyl]pyrazolo[4,3-b]pyridine] | 891
Cn1cc(Cn2ncc3ncc(-c4ccc(F)c(OC(F)F)c4)cc32)nn1 [Example 72, 6-[3-(Difluoromethoxy)-4-fluoro-phenyl]-1-[(1-methyltriazol-4-yl)methyl]pyrazolo[4,3-b]pyridine] | 827
Cn1cnc(Cn2ncc3ncc(-c4ccc(F)c(C(F)F)c4)cc32)n1 [Example 73, 6-[3-(Difluoromethyl)-4-fluoro-phenyl]-1-[(1-methyl-1,2,4-triazol-3-yl)methyl]pyrazolo[4,3-b]pyridine] | 383
Cn1cnnc1Cn1ncc2ncc(-c3ccc(F)c(C(F)F)c3)cc21 [Example 74, 6-[3-(Difluoromethyl)-4-fluoro-phenyl]-1-[(4-methyl-1,2,4-triazol-3-yl)methyl]pyrazolo[4,3-b]pyridine] | 111
Cc1nnc(Cn2ncc3ncc(-c4ccc(F)c(C(F)F)c4)cc32)n1C [Example 75, 6-[3-(Difluoromethyl)-4-fluoro-phenyl]-1-[(4,5-dimethyl-1,2,4-triazol-3-yl)methyl]pyrazolo[4,3-b]pyridine] | 139
CCc1nnc(Cn2ncc3ncc(-c4ccc(F)c(C(F)F)c4)cc32)n1C [Example 76, 6-[3-(Difluoromethyl)-4-fluoro-phenyl]-1-[(5-ethyl-4-methyl-1,2,4-triazol-3-yl)methyl]pyrazolo[4,3-b]pyridine] | 3830
Cc1nnc(Cn2ncc3ncc(-c4ccc(Cl)s4)cc32)o1 [Example 77, 2-[[6-(5-Chloro-2-thienyl)pyrazolo[4,3-b]pyridin-1-yl]methyl]-5-methyl-1,3,4-oxadiazole] | 89
Cc1nnc(Cn2ncc3ncc(-c4ccc(C(F)(F)F)s4)cc32)o1 [Example 78, 2-Methyl-5-[[6-[5-(trifluoromethyl)-2-thienyl]pyrazolo[4,3-b]pyridin-1-yl]methyl]-1,3,4-oxadiazole] | 143
Cc1nnc(Cn2ncc3ncc(-c4ccc(C(F)F)s4)cc32)o1 [Example 79, 2-[[6-[5-(Difluoromethyl)-2-thienyl]pyrazolo[4,3-b]pyridin-1-yl]methyl]-5-methyl-1,3,4-oxadiazole] | 153
Cc1noc(Cn2ncc3ncc(-c4ccc(F)cc4)cc32)n1 [Example 80, 5-[[6-(4-Fluorophenyl)pyrazolo[4,3-b]pyridin-1-yl]methyl]-3-methyl-1,2,4-oxadiazole] | 957
COc1cccc(-c2cnc3cnn(Cc4nc(C)no4)c3c2)c1 [Example 81, 5-[[6-(3-Methoxyphenyl)pyrazolo[4,3-b]pyridin-1-yl]methyl]-3-methyl-1,2,4-oxadiazole] | 2310
Cc1nnc(Cn2ncc3ncc(-c4cccc(C(C)(F)F)c4)cc32)o1 [Example 82, 2-[[6-[3-(1,1-Difluoroethyl)phenyl]pyrazolo[4,3-b]pyridin-1-yl]methyl]-5-methyl-1,3,4-oxadiazole] | 160
Cc1nnc(Cn2nc(F)c3ncc(-c4cccc(C(C)(F)F)c4)cc32)o1 [Example 83, 2-[[6-[3-(1,1-Difluoroethyl)phenyl]-3-fluoro-pyrazolo[4,3-b]pyridin-1-yl]methyl]-5-methyl-1,3,4-oxadiazole] | 126
Cc1noc(Cn2ncc3ncc(-c4cccc(C(F)(F)F)c4)cc32)n1 [Example 84, 3-Methyl-5-[[6-[3-(trifluoromethyl)phenyl]pyrazolo[4,3-b]pyridin-1-yl]methyl]-1,2,4-oxadiazole] | 293
Cc1nnc(Cn2ncc3ncc(-c4cccc(C(F)(F)F)c4)cc32)o1 [Example 85, 2-Methyl-5-[[6-[3-(trifluoromethyl)phenyl]pyrazolo[4,3-b]pyridin-1-yl]methyl]-1,3,4-oxadiazole] | 143
Cc1nc(Cn2ncc3ncc(-c4cccc(C(F)(F)F)c4)cc32)no1 [Example 86, 5-Methyl-3-[[6-[3-(trifluoromethyl)phenyl]pyrazolo[4,3-b]pyridin-1-yl]methyl]-1,2,4-oxadiazole] | 202

Structure (SMILES) | IC50 [nM]
FC(F)(F)c1cccc(-c2cnc3cnn(Cc4ncno4)c3c2)c1 [Example 87, 5-[[6-[3-(Trifluoromethyl)phenyl]pyrazolo[4,3-b]pyridin-1-yl]methyl]-1,2,4-oxadiazole] | 383
Cc1nnc(Cn2ncc3ncc(-c4ccnc(C(F)(F)F)c4)cc32)o1 [Example 88, 2-Methyl-5-[[6-[2-(trifluoromethyl)-4-pyridyl]pyrazolo[4,3-b]pyridin-1-yl]methyl]-1,3,4-oxadiazole] | 467
Cc1nnc(Cn2ncc3ncc(-c4ccc(F)c(C)c4)cc32)o1 [Example 89, 2-[[6-(4-Fluoro-3-methyl-phenyl)pyrazolo[4,3-b]pyridin-1-yl]methyl]-5-methyl-1,3,4-oxadiazole] | 37
Cc1nnc(Cn2nc(F)c3ncc(-c4ccc(F)c(C)c4)cc32)o1 [Example 90, 2-[[3-Fluoro-6-(4-fluoro-3-methyl-phenyl)pyrazolo[4,3-b]pyridin-1-yl]methyl]-5-methyl-1,3,4-oxadiazole] | 33
Cc1cc(-c2cnc3cnn(Cc4nnc(C(F)(F)F)o4)c3c2)ccc1F [Example 91, 2-[[6-(4-Fluoro-3-methyl-phenyl)pyrazolo[4,3-b]pyridin-1-yl]methyl]-5-(trifluoromethyl)-1,3,4-oxadiazole] | 145
Cc1nnc(Cn2ncc3ncc(-c4ccc(F)c(Cl)c4)cc32)o1 [Example 92, 2-[[6-(3-Chloro-4-fluoro-phenyl)pyrazolo[4,3-b]pyridin-1-yl]methyl]-5-methyl-1,3,4-oxadiazole] | 90
Cc1nnc(Cn2nc(F)c3ncc(-c4ccc(F)c(Cl)c4)cc32)o1 [Example 93, 2-[[6-(3-Chloro-4-fluoro-phenyl)-3-fluoro-pyrazolo[4,3-b]pyridin-1-yl]methyl]-5-methyl-1,3,4-oxadiazole] | 87
Fc1ccc(-c2cnc3cnn(Cc4nnco4)c3c2)cc1C(F)F [Example 94, 2-[[6-[3-(Difluoromethyl)-4-fluoro-phenyl]pyrazolo[4,3-b]pyridin-1-yl]methyl]-1,3,4-oxadiazole] | 58
Cc1noc(Cn2ncc3ncc(-c4ccc(F)c(C(F)F)c4)cc32)n1 [Example 95, 5-[[6-[3-(Difluoromethyl)-4-fluoro-phenyl]pyrazolo[4,3-b]pyridin-1-yl]methyl]-3-methyl-1,2,4-oxadiazole] | 40
Cc1nonc1Cn1ncc2ncc(-c3ccc(F)c(C(F)F)c3)cc21 [Example 98, 3-[[6-[3-(Difluoromethyl)-4-fluoro-phenyl]pyrazolo[4,3-b]pyridin-1-yl]methyl]-4-methyl-1,2,5-oxadiazole] | 34
Fc1ccc(-c2cnc3cnn(Cc4nnc(C5CC5)o4)c3c2)cc1C(F)F [Example 99, 2-Cyclopropyl-5-[[6-[3-(difluoromethyl)-4-fluoro-phenyl]pyrazolo[4,3-b]pyridin-1-yl]methyl]-1,3,4-oxadiazole] | 70
CC(C)c1nnc(Cn2ncc3ncc(-c4ccc(F)c(C(F)F)c4)cc32)o1 [Example 100, 2-[[6-[3-(Difluoromethyl)-4-fluoro-phenyl]pyrazolo[4,3-b]pyridin-1-yl]methyl]-5-isopropyl-1,3,4-oxadiazole] | 550
CN(C)c1nnc(Cn2ncc3ncc(-c4ccc(F)c(C(F)F)c4)cc32)o1 [Example 101, 5-[[6-[3-(Difluoromethyl)-4-fluoro-phenyl]pyrazolo[4,3-b]pyridin-1-yl]methyl]-N,N-dimethyl-1,3,4-oxadiazol-2-amine] | > 2990
Fc1ccc(-c2cnc3cnn(Cc4nnc(C(F)(F)F)o4)c3c2)cc1C(F)F [Example 102, 2-[[6-[3-(Difluoromethyl)-4-fluoro-phenyl]pyrazolo[4,3-b]pyridin-1-yl]methyl]-5-(trifluoromethyl)-1,3,4-oxadiazole] | 49
Fc1ccc(-c2cnc3cnn(Cc4nnc(-c5ccccc5)o4)c3c2)cc1C(F)F [Example 103, 2-[[6-[3-(Difluoromethyl)-4-fluoro-phenyl]pyrazolo[4,3-b]pyridin-1-yl]methyl]-5-phenyl-1,3,4-oxadiazole] | > 2990
Cc1nnc(Cn2ncc3ncc(-c4ccc(F)c(C(C)(F)F)c4)cc32)o1 [Example 104, 2-[[6-[3-(1,1-Difluoroethyl)-4-fluoro-phenyl]pyrazolo[4,3-b]pyridin-1-yl]methyl]-5-methyl-1,3,4-oxadiazole] | 244
